The source of these data is patent US20250034110A1, “LPAR1 ANTAGONISTS AND USES THEREOF” (Pipeline Therapeutics, Inc., priority 2021, published 2025).

Where two headings read alike, the source gives them in different places.

The target of the experiment is human LPAR1 (Homo sapiens, UniProt Q92633). In words: In vitro functional assay of lysophosphatidic acid receptor 1 activity (calcium flux). The format is cell-based. In general terms: A change in cytosolic calcium serves as a functional read-out for many receptors and channels.
Sequence of human LPAR1 (Q92633 whole entry): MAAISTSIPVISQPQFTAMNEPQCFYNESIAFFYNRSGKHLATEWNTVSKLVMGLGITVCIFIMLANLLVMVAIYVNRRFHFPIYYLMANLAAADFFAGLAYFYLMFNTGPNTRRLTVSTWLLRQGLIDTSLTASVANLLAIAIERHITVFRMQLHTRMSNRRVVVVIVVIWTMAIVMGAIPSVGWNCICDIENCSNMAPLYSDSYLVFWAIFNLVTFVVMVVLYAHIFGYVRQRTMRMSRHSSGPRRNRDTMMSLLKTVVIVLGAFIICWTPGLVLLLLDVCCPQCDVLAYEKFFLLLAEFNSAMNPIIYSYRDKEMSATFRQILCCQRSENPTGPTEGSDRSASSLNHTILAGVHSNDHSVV
Where [1] appears, read: B103 cells stably expressing human LPAR1, calcium flux (Fluo-4 NW) after lysophosphatidic acid (18:1) at EC80, 100 pM to 10 μM, read-out: LPAR1 IC50.

Take `CC(=O)N1CCC(N(C(=O)Nc2ccc(C(F)(F)F)nc2C)c2ccccc2C(C)C)CC1` [Example 88]: the IC50 (as a rule, the point on the concentration scale where inhibition reaches its midpoint) (LPAR1 IC50) was over 1000 nM.

As to `Cc1ccc(NC(=O)N(c2ccccc2C(C)C)C2CCN(S(C)(=O)=O)CC2)c(OC(F)F)n1` [Example 73, 3-(2-(difluoromethoxy)-6-methylpyridin-3-yl)-1-(2-isopropylphenyl)-1-(1-(methylsulfonyl)piperidin-4-yl)urea], the IC50 (LPAR1 IC50) is under 10 nM. Take `CC(=O)N1CCC(N(C(=O)Nc2ccc(C)cn2)c2ccccc2C(C)C)CC1` [Example 143, 1-(1-acetylpiperidin-4-yl)-1-(2-isopropylphenyl)-3-(5-methylpyridin-2-yl)urea]: the IC50 (LPAR1 IC50) was over 1000 nM.

Take `COc1ccc(NC(=O)N(c2ccccc2C(C)C)[C@H]2C[C@]3(C[C@H]3C(=O)O)C2)c(OC(F)F)n1` [Example 150]: under setting [1], the IC50 is under 10 nM.

In the case of `CC(C)Oc1ccc(NC(=O)N(c2ccccc2C(C)C)[C@H]2CC[C@H](C(=O)O)CC2)c(OC(C)C)n1` [Example 252, (1r,4r)-4-(3-(2,6-diisopropoxypyridin-3-yl)-1-(2-isopropylphenyl)ureido)cyclohexane-1-carboxylic acid], the IC50 under setting [1] lay in the range of 100 to 1000 nM. As for `COc1nc(OC(F)F)c(NC(=O)N(c2ccccc2C(C)C)C2CCN(C(C)=O)CC2)cc1F` [Example 225, 1-(1-acetylpiperidin-4-yl)-3-(2-(difluoromethoxy)-5-fluoro-6-methoxypyridin-3-yl)-l-(2-isopropylphenyl)urea], the IC50 (LPAR1 IC50) was 10 to 100 nM. In the case of `COc1ccc(NC(=O)N(c2ccccc2C(C)C)[C@H]2CC[C@H](C(=O)O)CC2)c(OCC(F)F)n1` [Example 289, (1r,4r)-4-(3-(2-(2,2-difluoroethoxy)-6-methoxypyridin-3-yl)-1-(2-isopropylphenyl)ureido)cyclohexane-1-carboxylic acid], the IC50 under setting [1] was under 10 nM. Same read-out and setting: the figure for `Cc1ccc(NC(=O)N(CC2CS(=O)(=O)C2)c2ccccc2C(C)C)c(OC(F)F)n1` [Example 19, 3-(2-(difluoromethoxy)-6-methylpyridin-3-yl)-1-((1,1-dioxidothietan-3-yl)methyl)-1-(2-isopropylphenyl)urea] is 100 to 1000 nM. For `COc1ccc(NC(=O)N(c2ccccc2C(C)C)C2CC3CC2CN3C(C)=O)c(OC(F)F)n1` (stereo not shown) [Example 57, 1-(2-acetyl-2-azabicyclo[2.2.1]heptan-5-yl)-3-(2-(difluoromethoxy)-6-methoxypyridin-3-yl)-1-(2-isopropylphenyl)urea], the half-inhibitory concentration (IC50) (LPAR1 IC50) is 100 to 1000 nM. In the case of `Cc1ccc(NC(=O)N(c2ccccc2C(C)C)C2CCC(F)(F)CC2)c(OC(F)F)n1` [Example 237, 1-(4,4-difluorocyclohexyl)-3-(2-(difluoromethoxy)-6-methylpyridin-3-yl)-1-(2-isopropylphenyl)urea], the IC50 under setting [1] was 100 to 1000 nM.

`Cc1ccc(NC(=O)N(CC23CC(C(=O)O)(C2)C3(F)F)c2ccccc2C(C)C)c(OC(F)F)n1` [Example 235]: under setting [1], the concentration for half-maximal inhibition (IC50) lay in the range of 10 to 100 nM. Take `Cc1ccc(NC(=O)N(c2ccccc2C(C)C)C2CCC(NC(=O)c3nccs3)CC2)c(OC(F)F)n1` (stereo not shown) [Example 268, N-(4-(3-(2-(difluoromethoxy)-6-methylpyridin-3-yl)-1-(2-isopropylphenyl)ureido)cyclohexyl)thiazole-2-carboxamide]: the IC50 under setting [1] is 100 to 1000 nM.

As to `CC(=O)N1CCC(N(C(=O)Nc2cnc(C)cn2)c2ccccc2C(C)C)CC1` [Example 131], for the setting “LPAR1 IC50”, the IC50 lay in the range of 100 to 1000 nM. In the case of `Cc1ccc(NC(=O)N(c2ccccc2C(C)C)[C@H]2CC[C@H](CC(=O)O)CC2)c(OC(F)F)n1` [Example 165, 2-((1r,4r)-4-(3-(2-(difluoromethoxy)-6-methylpyridin-3-yl)-1-(2-isopropylphenyl)ureido)cyclohexyl)acetic acid], the IC50 under setting [1] was under 10 nM. On the same count and under the same terms, under `COc1ccc(NC(=O)N(c2ccccc2C(C)C)[C@H]2C[C@@](O)(C(F)(F)C(=O)O)C2)c(OC(F)F)n1` [Example 323] stands under 10 nM; under `CC(=O)N1CCC2(CC1)CC(N(C(=O)Nc1ccc(C)nc1OC(F)F)c1ccccc1C(C)C)C2` [Example 251, 1-(7-acetyl-7-azaspiro[3.5]nonan-2-yl)-3-(2-(difluoromethoxy)-6-methylpyridin-3-yl)-1-(2-isopropylphenyl)urea], over 1000 nM; under `Cc1ccc(NC(=O)N(c2ccccc2C(C)C)[C@H]2CC[C@](C)(C(=O)O)CC2)c(OC(F)F)n1` [Example 309], under 10 nM. As for `COC[C@H](C)Oc1nc(C)ccc1NC(=O)N(c1ccccc1C(C)C)[C@H]1CC[C@H](C(=O)O)CC1` [Example 316, trans-4-(1-(2-isopropylphenyl)-3-(2-(((S)-1-methoxypropan-2-yl)oxy)-6-methylpyridin-3-yl)ureido)cyclohexane-1-carboxylic acid], the IC50 under setting [1] is 10 to 100 nM. Same read-out and setting: the figure for `Cc1ccc(NC(=O)N(c2ccccc2C(C)C)[C@H]2C[C@H](C(=O)O)C2)c(OC(F)F)n1` [Example 161, trans-3-(3-(2-(difluoromethoxy)-6-methylpyridin-3-yl)-1-(2-isopropylphenyl)ureido)cyclobutane-1-carboxylic acid] is 10 to 100 nM. On the same count and under the same terms, the figure for `CC(=O)N1CC2(CC(N(C(=O)Nc3ncc(Cl)cc3OC(F)F)c3ccccc3C(C)C)C2)C1` [Example 124] is 100 to 1000 nM; for `Cc1ccc(NC(=O)N(c2ccccc2C(C)C)[C@H]2C[C@H](CC#N)C2)c(OC(F)F)n1` [Example 27, 1-((1r,3r)-3-(cyanomethyl)cyclobutyl)-3-(2-(difluoromethoxy)-6-methylpyridin-3-yl)-1-(2-isopropylphenyl)urea] it is 100 to 1000 nM. For `CCOc1ccc(NC(=O)N(c2ccccc2C(C)C)C2CCN(C(C)=O)CC2)c(OC(F)F)n1` [Example 107], the IC50 (LPAR1 IC50) is 10 to 100 nM. `C=C(C)c1ccccc1N(C(=O)Nc1ccc(C)nc1OC(F)F)C1CCN(C(C)=O)CC1` [Example 29, 1-(1-acetylpiperidin-4-yl)-3-(2-(difluoromethoxy)-6-methylpyridin-3-yl)-1-(2-(prop-1-en-2-yl)phenyl)urea]: the IC50 (LPAR1 IC50) lay in the range of 10 to 100 nM. `CNC(=O)CC1CC(N(C(=O)Nc2ccc(C)nc2OC(F)F)c2ccccc2C(C)C)C1` (stereo not shown) [Example 190, 2-(3-(3-(2-(difluoromethoxy)-6-methylpyridin-3-yl)-1-(2-isopropylphenyl)ureido)cyclobutyl)-N-methylacetamide]: the IC50 under setting [1] was 100 to 1000 nM. On the same count and under the same terms, the figure for `COc1ccc(NC(=O)N(c2ccccc2C(C)C)C2CC3(CC(C(=O)O)C3)C2)c(OC(F)F)n1` (stereo not shown) [Example 233] is 10 to 100 nM; for `Cc1ccc(NC(=O)N(CC2CC(C(=O)O)C2)c2ccccc2C(C)C)c(OC(F)F)n1` (stereo not shown) [Example 170] it is under 10 nM.

In the case of `COC(=O)c1cc(Br)cnc1NC(=O)N(c1ccccc1C(C)C)C1CCN(C(C)=O)CC1` [Example 226], the IC50 (LPAR1 IC50) lay within 100 to 1000 nM. Consider `Cc1ccc(NC(=O)N(c2ccccc2C(C)C)[C@H]2C[C@@H](O)C2)c(OC(F)F)n1` [Example 182], for which the 50% inhibitory concentration (IC50) under setting [1] lay within 100 to 1000 nM. Same read-out and setting: the figure for `CC(C)c1ccccc1N(C(=O)Nc1ncc(Cl)cc1OC(F)F)[C@H]1CC[C@H](C(=O)O)CC1` [Example 336, (1r,4r)-4-(3-(5-chloro-3-(difluoromethoxy)pyridin-2-yl)-1-(2-isopropylphenyl)ureido)cyclohexane-1-carboxylic acid] is 10 to 100 nM; for `CC(C)c1ccccc1N(C(=O)Nc1ccc(C2CC2)nc1OC(F)F)[C@H]1CC[C@H](C(=O)O)CC1` [Example 232] it is 10 to 100 nM. Take `Cc1ccc(NC(=O)N(c2ccccc2C(C)C)[C@H]2CC[C@@H](S(C)(=O)=O)CC2)c(OC(F)F)n1` [Example 255, 3-(2-(difluoromethoxy)-6-methylpyridin-3-yl)-1-(2-isopropylphenyl)-1-((1s,4s)-4-(methylsulfonyl)cyclohexyl)urea]: the IC50 under setting [1] fell in the range of 10 to 100 nM. Still for that read-out and setting: under `COc1ccc(NC(=O)N(c2ccccc2C(C)C)C2CCCN(C(C)=O)C2)c(OC(F)F)n1` (stereo not shown) [Example 43, 1-(1-acetylpiperidin-3-yl)-3-(2-(difluoromethoxy)-6-methoxypyridin-3-yl)-1-(2-isopropylphenyl)urea] stands 100 to 1000 nM; under `COc1ccc(NC(=O)N(CC23CC(C(=O)O)(C2)C3(F)F)c2ccccc2C(C)C)c(OC(F)F)n1` [Example 234], 10 to 100 nM; under `COC(=O)C1CC(CN(C(=O)Nc2ccc(C)nc2OC(F)F)c2ccccc2C(C)C)C1` (stereo not shown) [Example 169], 10 to 100 nM.

Turning to `Cc1ccc(NC(=O)N(c2ccccc2C(C)C)C2COC2)c(OC(F)F)n1` [Example 14, 3-(2-(difluoromethoxy)-6-methylpyridin-3-yl)-1-(2-isopropylphenyl)-1-(oxetan-3-yl)urea], the IC50 under setting [1] fell in the range of 10 to 100 nM. Consider `CNC(=O)N1CCC(N(C(=O)Nc2ccc(OC)nc2OC(F)F)c2ccccc2C(C)C)CC1` [Example 64, 4-(3-(2-(difluoromethoxy)-6-methoxypyridin-3-yl)-1-(2-isopropylphenyl)ureido)-N-methylpiperidine-1-carboxamide], for which the IC50 (LPAR1 IC50) is 10 to 100 nM. For `CC(=O)N1CC[C@H](N(C(=O)Nc2ccc(C)nc2OC(F)F)c2ccccc2C(C)C)C1` [Example 68, (S)-1-(1-acetylpyrrolidin-3-yl)-3-(2-(difluoromethoxy)-6-methylpyridin-3-yl)-1-(2-isopropylphenyl)urea], the IC50 under setting [1] is 10 to 100 nM.

Consider `CC(=O)N1CCC(N(C(=O)Nc2ncc(Br)cc2OC(F)F)c2ccccc2C(C)C)CC1` [Example 129, 1-(1-acetylpiperidin-4-yl)-3-(5-bromo-3-(difluoromethoxy)pyridin-2-yl)-1-(2-isopropylphenyl)urea], for which the IC50 (LPAR1 IC50) fell in the range of 10 to 100 nM. Turning to `Cc1ccc(NC(=O)N(c2ccccc2C(C)C)C2CC3(C2)CN(S(C)(=O)=O)C3)c(OC(F)F)n1` [Example 76, 3-(2-(difluoromethoxy)-6-methylpyridin-3-yl)-1-(2-isopropylphenyl)-1-(2-(methylsulfonyl)-2-azaspiro[3.3]heptan-6-yl)urea], under setting [1], the IC50 was in the range of 100 to 1000 nM. On to `Cc1ccc(NC(=O)N(c2ccccc2C(C)C)C2CN(S(C)(=O)=O)C2)c(OC(F)F)n1` [Example 74, 3-(2-(difluoromethoxy)-6-methylpyridin-3-yl)-1-(2-isopropylphenyl)-1-(1-(methylsulfonyl)azetidin-3-yl)urea], for which, under setting [1], the half-inhibitory concentration (IC50) was 100 to 1000 nM.
